This assay concerns the target T1, hSCN9A (Homo sapiens, UniProt Q15858).
T1 construct: expressed in transfected cells
The experiment in a line: Whole-cell patch-clamp electrophysiology (conventional or PatchXpress), HEK cells expressing hSCN9A, estimated IC-50. The assay is classed as cell-based. As to conditions: estimated IC-50, HEK cells expressing hSCN9A; class symbols or bounds; read-out: SCN9A EIC-50. The procedure:
Human Embryonic Kidney (HEK) cells were transfected with hSCN3A or hSCN9A constructs using lipofectamine reagent (Invitrogen), using standard techniques. Cells stably expressing the hSCN3A or hSCN9A constructs were identified by their resistance to G-418 (400 μg/ml). Clones were screened for expression using the whole-cell voltage-clamp technique. HEK cells stably transfected with hSCN3A or hSCN9A were maintained in DMEM medium supplemented with 10% heat-inactivated fetal bovine serum and 400 μg/ml G418 sulfate in an incubator at 37° C. with a humidified atmosphere of 10% CO2. For HTS, cells were harvested from flasks by trypsinization and replated in an appropriate multi-well plate (typically 96 or 384 wells/plate) such that confluence would be achieved within 24 hours of plating. For electrophysiological studies, cells were removed from the culture flask by brief trypsinization and replated at low density onto glass cover slips. Cells were typically used for electrophysiological experiments within 24 to 72 h after plating. Cover slips containing HEK cells expressing hSCN3A or hSCN9A were placed in a bath on the stage of an inverted microscope and perfused (approximately 1 ml/min) with extracellular solution of the following composition: 138 mM NaCl, 2 mM CaCl2, 5.4 mM KCl, 1 mM MgCl2, 10 mM glucose, and 10 mM HEPES, pH 7.4, with NaOH. […] All recordings were made at room temperature (22-24° C.) using AXOPATCH 200B amplifiers and PCLAMP software (Axon Instruments, Burlingame, Calif.) or PatchXpress 7000 hardware and associated software (Axon Instruments, Burlingame, Calif.). hSCN3A or hSCN9A currents in HEK cells were measured using the whole-cell configuration of the patch-clamp technique (Hamill et al., 1981). […] As a result, voltage errors were negligible and no correction was applied. Current records were acquired at 20 to 50 KHz and filtered at 5 to 10 KHz. HEK cells stably transfected with hSCN3A or hSCN9A were viewed under Hoffman contrast optics and placed in front of an array of flow pipes emitting either control or compound-containing extracellular solutions. All compounds were dissolved in dimethyl sulfoxide to make 10 mM stock solutions, which were then diluted into extracellular solution to attain the final concentrations desired. […] The voltage-dependence of inactivation was determined by applying a series of depolarizing prepulses (8 sec long in 10 mV increments) from a negative holding potential. The voltage was then immediately stepped to 0 mV to assess the magnitude of the sodium current. Currents elicited at 0 mV were plotted as a function of prepulse potential to allow estimation of the voltage midpoint of inactivation (V1/2). Cells were then voltage clamped at the empirically determined V1/2. Compounds were tested for their ability to inhibit hSCN3A or hSCN9A sodium channels by activating the channel with a 20 msec voltage step to 0 mV following an 8 second conditioning prepulse to the empirically determined V1-2 (Table B). Compound effect (% inhibition) was determined by difference in current amplitude before and after application of test compounds. […] In some cases electrophysiological assays were conducted with PatchXpress 7000 hardware and associated software (Molecular Devices Corp) (Table B). All assay buffers and solutions were identical to those used in conventional whole-cell voltage clamp experiments described above. hSCN3A or hSCN9A containing cells were grown as above to 50%-80% confluency and harvested by trypsinization. Trypsinized cells were washed and resuspended in extracellular buffer at a concentration of 1×10^6 cells/ml. The onboard liquid handling facility of the PatchXpress was used for dispensing cells and application of test compounds. Determination of the voltage midpoint of inactivation was as described for conventional whole-cell recordings. Cells were then voltage-clamped to the empirically determined V1/2 and current was activated by a 20 msec voltage step to 0 mV.

T1 sequence (Q15858 whole entry): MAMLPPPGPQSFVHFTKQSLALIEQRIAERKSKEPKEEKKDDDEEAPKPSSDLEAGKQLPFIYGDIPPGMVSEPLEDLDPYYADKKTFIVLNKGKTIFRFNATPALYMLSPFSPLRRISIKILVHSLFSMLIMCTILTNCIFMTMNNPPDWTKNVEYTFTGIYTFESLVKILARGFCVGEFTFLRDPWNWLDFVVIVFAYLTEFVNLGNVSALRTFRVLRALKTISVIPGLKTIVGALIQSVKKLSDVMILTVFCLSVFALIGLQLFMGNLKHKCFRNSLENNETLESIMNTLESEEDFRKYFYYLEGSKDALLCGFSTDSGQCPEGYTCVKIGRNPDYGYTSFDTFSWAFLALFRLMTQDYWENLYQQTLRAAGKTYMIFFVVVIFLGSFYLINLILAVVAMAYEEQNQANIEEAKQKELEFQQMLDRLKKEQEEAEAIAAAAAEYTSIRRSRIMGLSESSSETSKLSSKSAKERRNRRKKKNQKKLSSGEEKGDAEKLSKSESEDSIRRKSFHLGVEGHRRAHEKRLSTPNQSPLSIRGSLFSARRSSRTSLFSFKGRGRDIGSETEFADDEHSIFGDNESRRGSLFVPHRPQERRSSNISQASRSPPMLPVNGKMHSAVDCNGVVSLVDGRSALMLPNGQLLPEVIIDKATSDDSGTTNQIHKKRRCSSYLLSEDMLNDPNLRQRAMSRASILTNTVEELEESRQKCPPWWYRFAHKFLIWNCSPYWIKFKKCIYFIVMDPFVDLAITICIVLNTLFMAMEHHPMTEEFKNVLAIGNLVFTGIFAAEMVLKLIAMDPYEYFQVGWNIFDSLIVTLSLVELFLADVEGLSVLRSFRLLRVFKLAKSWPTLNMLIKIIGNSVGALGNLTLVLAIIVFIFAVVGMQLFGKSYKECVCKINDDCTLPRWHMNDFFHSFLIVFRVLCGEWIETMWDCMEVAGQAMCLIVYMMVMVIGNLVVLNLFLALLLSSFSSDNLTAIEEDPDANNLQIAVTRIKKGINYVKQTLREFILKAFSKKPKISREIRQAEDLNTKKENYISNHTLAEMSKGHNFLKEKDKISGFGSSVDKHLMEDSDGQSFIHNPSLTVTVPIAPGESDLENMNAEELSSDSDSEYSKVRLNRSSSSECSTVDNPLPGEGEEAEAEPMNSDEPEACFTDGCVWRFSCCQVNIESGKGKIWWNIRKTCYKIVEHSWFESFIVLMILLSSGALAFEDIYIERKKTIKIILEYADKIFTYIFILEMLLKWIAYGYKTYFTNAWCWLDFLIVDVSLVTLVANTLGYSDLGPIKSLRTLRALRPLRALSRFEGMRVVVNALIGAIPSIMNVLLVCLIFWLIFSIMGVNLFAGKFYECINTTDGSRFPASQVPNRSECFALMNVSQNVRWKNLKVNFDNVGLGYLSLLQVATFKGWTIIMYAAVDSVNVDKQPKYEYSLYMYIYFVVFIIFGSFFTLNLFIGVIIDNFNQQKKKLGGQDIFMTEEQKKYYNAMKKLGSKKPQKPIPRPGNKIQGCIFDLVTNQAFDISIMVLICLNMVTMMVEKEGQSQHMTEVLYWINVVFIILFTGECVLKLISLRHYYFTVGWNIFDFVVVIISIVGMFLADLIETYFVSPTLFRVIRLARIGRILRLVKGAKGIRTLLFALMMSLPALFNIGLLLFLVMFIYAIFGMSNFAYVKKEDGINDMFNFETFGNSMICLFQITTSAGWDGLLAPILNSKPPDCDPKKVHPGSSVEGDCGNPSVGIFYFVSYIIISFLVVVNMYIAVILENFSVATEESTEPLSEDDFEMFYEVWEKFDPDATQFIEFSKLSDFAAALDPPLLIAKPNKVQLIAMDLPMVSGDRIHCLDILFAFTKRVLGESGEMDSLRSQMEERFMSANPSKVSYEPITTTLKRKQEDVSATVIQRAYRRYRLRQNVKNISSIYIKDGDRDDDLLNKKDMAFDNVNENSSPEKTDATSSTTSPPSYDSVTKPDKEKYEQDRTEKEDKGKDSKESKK

`Cc1cc(Nc2ccc(S(=O)(=O)Nc3nccs3)c(F)c2)n(C(C)(C)C)n1` [Compound 192, 4-(1-tert-butyl-3-methyl-1H-pyrazol-5-ylamino)-2-fluoro-N-(thiazol-2-yl)benzenesulfonamide]: the IC50 was 2 to 10 µM.

Consider `CC(C)(C)n1nc(Cc2cccc(Cl)c2)cc1Nc1ccc(S(=O)(=O)Nc2nccs2)cc1` [Compound 194, 4-(1-tert-butyl-3-(3-chlorobenzyl)-1H-pyrazol-5-ylamino)-N-(thiazol-2-yl)benzenesulfonamide], for which the IC50 was 2 to 10 µM.

`CC(C)(C)n1nc(Cc2cccc(Cl)c2)cc1Nc1ccc(S(=O)(=O)Nc2nccs2)cc1F` [Compound 195, 4-(1-tert-butyl-3-(3-chlorobenzyl)-1H-pyrazol-5-ylamino)-3-fluoro-N-(thiazol-2-yl)benzenesulfonamide]: the IC50 was less than 2 µM.

Consider `Cn1nc(Cc2ccc(Cl)c(F)c2)cc1Nc1ccc(S(=O)(=O)Nc2nccs2)cc1` [Compound 196, 4-(3-(4-chloro-3-fluorobenzyl)-1-methyl-1H-pyrazol-5-ylamino)-N-(thiazol-2-yl)benzenesulfonamide], for which the IC50 is less than 2 µM.

In the case of `O=S(=O)(Nc1nccs1)c1ccc(Nc2ccn(Cc3ccc(Cl)cc3F)n2)cc1F` [Compound 197, 4-(1-(4-chloro-2-fluorobenzyl)-1H-pyrazol-3-ylamino)-2-fluoro-N-(thiazol-2-yl)benzenesulfonamide], the IC50 was less than 2 µM.

In the case of `O=S(=O)(Nc1nccs1)c1ccc(Nc2ncn(Cc3ccc(Cl)cc3)n2)c(F)c1` [Compound 199, 4-(1-(4-chlorobenzyl)-1H-1,2,4-triazol-3-ylamino)-3-fluoro-N-(thiazol-2-yl)benzenesulfonamide], the IC50 was less than 2 µM.

Regarding `O=S(=O)(Nc1nccs1)c1ccc(Nc2ncn(Cc3cccc(C(F)(F)F)c3)n2)c(F)c1` [Compound 200, 3-fluoro-N-(thiazol-2-yl)-4-(1-(3-(trifluoromethyl)benzyl)-1H-1,2,4-triazol-3-ylamino)benzenesulfonamide], the IC50 was less than 2 µM.

For `Cc1cc(Nc2ccc(S(=O)(=O)Nc3nccs3)c(F)c2)n(C2CCN(C)CC2)n1` [Compound 202, 2-fluoro-4-(3-methyl-1-(1-methylpiperidin-4-yl)-1H-pyrazol-5-ylamino)-N-(thiazol-2-yl)benzenesulfonamide], the IC50 was 2 to 10 µM.

Regarding `Cc1cc(Nc2ccc(S(=O)(=O)Nc3nccs3)cc2F)n(-c2ccccc2F)n1` [Compound 203, 3-fluoro-4-(1-(2-fluorophenyl)-3-methyl-1H-pyrazol-5-ylamino)-N-(thiazol-2-yl)benzenesulfonamide], the IC50 was less than 2 µM.

With `O=S(=O)(Nc1nccs1)c1ccc(Nc2ncn(Cc3ccc(F)cc3Cl)n2)c(F)c1` [Compound 207, 4-(1-(2-chloro-4-fluorobenzyl)-1H-1,2,4-triazol-3-ylamino)-3-fluoro-N-(thiazol-2-yl)benzenesulfonamide], the IC50 is less than 2 µM.

As to `O=S(=O)(Nc1nccs1)c1ccc(Nc2ncn(Cc3ccccc3Cl)n2)c(F)c1` [Compound 208, 4-(1-(2-chlorobenzyl)-1H-1,2,4-triazol-3-ylamino)-3-fluoro-N-(thiazol-2-yl)benzenesulfonamide], the IC50 was less than 2 µM.

`Cn1nc(Cc2ccc(Cl)c(F)c2)cc1Nc1ccc(S(=O)(=O)Nc2nccs2)cc1F` [Compound 209, 4-(3-(4-chloro-3-fluorobenzyl)-1-methyl-1H-pyrazol-5-ylamino)-3-fluoro-N-(thiazol-2-yl)benzenesulfonamide]: the IC50 is less than 2 µM.

Take `Cn1nc(Cc2ccc(Cl)c(F)c2)cc1Nc1ccc(S(=O)(=O)Nc2nccs2)c(F)c1` [Compound 210, 4-(3-(4-chloro-3-fluorobenzyl)-1-methyl-1H-pyrazol-5-ylamino)-2-fluoro-N-(thiazol-2-yl)benzenesulfonamide]: the IC50 is less than 2 µM.

Regarding `O=S(=O)(Nc1nccs1)c1ccc(Nc2ccn(Cc3ccccc3)n2)cc1F` [Compound 211, 4-(1-benzyl-1H-pyrazol-3-ylamino)-2-fluoro-N-(thiazol-2-yl)benzenesulfonamide], the IC50 is 2 to 10 µM.

As for `O=S(=O)(Nc1nccs1)c1ccc(Nc2ccn(Cc3ccc(Cl)cc3)n2)cc1C(F)(F)F` [Compound 212, 4-(1-(4-chlorobenzyl)-1H-pyrazol-3-ylamino)-N-(thiazol-2-yl)-2-(trifluoromethyl)benzenesulfonamide], the IC50 is 2 to 10 µM.

Regarding `CN(C)C(=O)Cc1cc(Nc2ccc(S(=O)(=O)Nc3nccs3)c(F)c2)n(-c2ccccc2)n1` [Compound 213, 2-(5-(3-fluoro-4-(N-thiazol-2-ylsulfamoyl)phenylamino)-1-phenyl-1H-pyrazol-3-yl)-N,N-dimethylethanamide], the IC50 was 2 to 10 µM.

Take `COc1ccccc1-n1nc(C(C)(C)C)cc1Nc1ccc(S(=O)(=O)Nc2nccs2)c(F)c1` [Compound 214, 4-(3-tert-butyl-1-(2-methoxyphenyl)-1H-pyrazol-5-ylamino)-2-fluoro-N-(thiazol-2-yl)benzenesulfonamide]: the IC50 was less than 2 µM.

On to `COc1ccccc1-n1nc(C)cc1Nc1ccc(S(=O)(=O)Nc2nccs2)cc1F` [Compound 215, 3-fluoro-4-(1-(2-methoxyphenyl)-3-methyl-1H-pyrazol-5-ylamino)-N-(thiazol-2-yl)benzenesulfonamide], for which the IC50 was less than 2 µM.

As to `O=S(=O)(Nc1nccs1)c1ccc(Nc2ccn(Cc3ccc(F)cc3)n2)cc1F` [Compound 217, 2-fluoro-4-(1-(4-fluorobenzyl)-1H-pyrazol-3-ylamino)-N-(thiazol-2-yl)benzenesulfonamide], the IC50 was less than 2 µM.

In the case of `Cn1nc(Cc2cccc(Cl)c2)cc1Nc1ccc(S(=O)(=O)Nc2nccs2)cc1` [Compound 218, 4-(3-(3-chlorobenzyl)-1-methyl-1H-pyrazol-5-ylamino)-N-(thiazol-2-yl)benzenesulfonamide], the IC50 is less than 2 µM.

Take `Cn1nc(Cc2cccc(Cl)c2)cc1Nc1ccc(S(=O)(=O)Nc2nccs2)cc1F` [Compound 219, 4-(3-(3-chlorobenzyl)-1-methyl-1H-pyrazol-5-ylamino)-3-fluoro-N-(thiazol-2-yl)benzenesulfonamide]: the IC50 was less than 2 µM.

Consider `COc1cccc(-n2nc(C)cc2Nc2ccc(S(=O)(=O)Nc3nccs3)c(F)c2)c1` [Compound 220, 2-fluoro-4-(1-(3-methoxyphenyl)-3-methyl-1H-pyrazol-5-ylamino)-N-(thiazol-2-yl)benzenesulfonamide], for which the IC50 is less than 2 µM.

As to `NC(=O)c1cn(Cc2ccc(Cl)cc2)nc1Nc1ccc(S(=O)(=O)Nc2nccs2)c(F)c1` [Compound 221, 1-(4-chlorobenzyl)-3-(3-fluoro-4-(N-thiazol-2-ylsulfamoyl)phenylamino)-1H-pyrazole-4-carboxamide], the IC50 was 2 to 10 µM.

On to `COc1ccccc1-c1cc(Nc2ccc(S(=O)(=O)Nc3nccs3)c(F)c2)n(C)n1` [Compound 223, 2-fluoro-4-(3-(2-methoxyphenyl)-1-methyl-1H-pyrazol-5-ylamino)-N-(thiazol-2-yl)benzenesulfonamide], for which the IC50 is less than 2 µM.

On to `COc1ccc(Cn2ccc(Nc3ccc(S(=O)(=O)Nc4nccs4)c(F)c3)n2)cc1` [Compound 224, 2-fluoro-4-(1-(4-methoxybenzyl)-1H-pyrazol-3-ylamino)-N-(thiazol-2-yl)benzenesulfonamide], for which the IC50 was less than 2 µM.

As for `Cc1nn(Cc2ccc(Cl)cc2)c(C)c1Nc1ccc(S(=O)(=O)Nc2nccs2)c(F)c1` [Compound 225, 4-(1-(4-chlorobenzyl)-3,5-dimethyl-1H-pyrazol-4-ylamino)-2-fluoro-N-(thiazol-2-yl)benzenesulfonamide], the IC50 was 2 to 10 µM.

These data come from patent US8124610B2, “Sodium channel inhibitors” (Icagen Inc., priority 2007, dated 2012).
